Source: PMC3467217, “A Potent Class of GPR40 Full Agonists Engages the EnteroInsular Axis to Promote Glucose Control in Rodents” (PLoS ONE, 2012)

Tests used:
GPR40 [1] = target: T1, GPR40 (Homo sapiens, UniProt O14842); experiment: Competition binding with 3H-AM-1638 on A9_GPR40 membranes; conditions: unlabelled competitor
T1 construct: expressed in transfected cells; host or cells: CHO cell line stably expressing GPR40 and aequorin
Procedure: (§1) GPR40 aequorin, plasmid titration, and inositol phosphate assays were performed as described. For aequorin assays, in addition to transient transfection of GPR40 into CHO cells, a CHO cell line stably expressing both GPR40 and aequorin was generated. GLUTag cells were obtained under a license from Dr. Daniel Drucker, University of Toronto. Competition binding experiments were performed using membranes prepared from A9_GPR40 cells. […] Competition binding assays were carried out in 20 mM Hepes pH 7.5, 5 mM MgCl2, 100 mM NaCl and 0.1% (w/v) free fatty acid BSA and bound radioligand was collected on 96-well GF/C filter plates.

PPAR alpha = PPAR alpha (Homo sapiens, UniProt Q07869); experiment: PPAR-alpha luciferase reporter assay; assay type: cell-based; conditions: concentrations up to 10 µM
Sequence of PPAR alpha (Q07869 whole entry, species assumed): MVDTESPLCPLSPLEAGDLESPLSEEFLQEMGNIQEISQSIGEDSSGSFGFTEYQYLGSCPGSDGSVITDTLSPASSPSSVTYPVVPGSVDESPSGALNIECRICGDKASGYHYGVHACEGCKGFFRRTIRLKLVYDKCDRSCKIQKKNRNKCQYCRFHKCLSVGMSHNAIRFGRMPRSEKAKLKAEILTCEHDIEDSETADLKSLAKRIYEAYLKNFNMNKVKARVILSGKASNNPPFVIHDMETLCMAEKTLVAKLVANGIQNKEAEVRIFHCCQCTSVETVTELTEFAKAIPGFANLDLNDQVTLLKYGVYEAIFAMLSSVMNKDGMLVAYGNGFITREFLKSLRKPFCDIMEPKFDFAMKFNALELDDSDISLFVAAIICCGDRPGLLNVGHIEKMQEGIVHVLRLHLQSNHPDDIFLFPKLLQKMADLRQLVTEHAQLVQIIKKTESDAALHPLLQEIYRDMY

NONcNZO10/LtJ mice = experiment: OGTT in NONcNZO10/LtJ type 2 diabetic mice; assay type: in vivo, mouse
Procedure: NONcNZO10/LtJ mice retain an intact leptin pathway but contain polygenic defects contributing to moderate and mature onset obesity and diabetes, [31].
(§2) All procedures on animals were approved by the Amgen San Francisco Institutional Animal Care and Use Committee (approved protocols #11–04 and #2007–00106). The Amgen San Francisco vivarium is an AAALAC accredited facility. Animals were housed under a 12-h light, 12-h dark cycle (lights-on 0600 h and lights-off 1800 h) and were allowed ad libidum access to chow and water. The HF/STZ mice were established as previously described. Briefly, C57BL/6j mice (Jackson labs) at 4 weeks of age were fed a high-fat diet (BioServ S1850, 35% fat) for 3-weeks and then injected with 95 mg/kg streptozotocin (Sigma) ip to induce beta cell dysfunction. The animals continued on the same high fat diet for 3–6 additional weeks. Animals were then randomized into treatment groups based on fasting blood glucose and insulin measures. NONcNZO10/LtJ (RCS10) male mice (Jackson labs) were used at 12-weeks of age and randomized for treatment based on fasting glucose levels. For OGTT experiments, drugs were formulated in 1% HPMC, 10% HPbCD, 1% Tween-80 and dosed via oral gavage. Glucose was administered at 2 g/kg 1-hour post drug dose by oral gavage.
(§3) For all glucose tolerance tests, glucose and insulin measurements were taken from tail vein samples at various time-points. Blood glucose values were measured on an Accu-Chek glucometer (Roche Diagnostics), while insulin levels were determined using an ELISA (Alpco).

HF/STZ mice [2] = experiment: Single oral dose without glucose challenge in HF/STZ mice: GLP-1, insulin, glucose, GIP; assay type: in vivo, mouse; conditions: HF/STZ mice, single oral dose
Procedure: The increase in insulin secretion by GPR40 agonists is due to direct stimulation of GPR40 receptors on pancreatic β-cells, but may also be derived from stimulation of the gut peptides GLP-1 and GIP, which subsequently act on the GLP-1 and GIP G protein-coupled receptors found on pancreatic β-cells. […] No glucose challenge was performed in order to isolate the effects of the compounds alone.
as §2

GLUTag cells = experiment: Inositol phosphate accumulation assay in GLUTag enteroendocrine L-cell line; assay type: cell-based, mouse
Procedure: Increased GLP-1 and GIP would be expected to have additional benefits in type 2 diabetics. […] We tested for potential effects on incretin secretion in vitro by using cells isolated from fetal rat intestines.
as §1

GPR120 = target: T2, GPR120 (Homo sapiens, UniProt Q5NUL3); experiment: GPR120 aequorin assay; assay type: cell-based; conditions: weak activity
T2 construct: expressed in transfected cells
T2 sequence (Q5NUL3 whole entry, species assumed): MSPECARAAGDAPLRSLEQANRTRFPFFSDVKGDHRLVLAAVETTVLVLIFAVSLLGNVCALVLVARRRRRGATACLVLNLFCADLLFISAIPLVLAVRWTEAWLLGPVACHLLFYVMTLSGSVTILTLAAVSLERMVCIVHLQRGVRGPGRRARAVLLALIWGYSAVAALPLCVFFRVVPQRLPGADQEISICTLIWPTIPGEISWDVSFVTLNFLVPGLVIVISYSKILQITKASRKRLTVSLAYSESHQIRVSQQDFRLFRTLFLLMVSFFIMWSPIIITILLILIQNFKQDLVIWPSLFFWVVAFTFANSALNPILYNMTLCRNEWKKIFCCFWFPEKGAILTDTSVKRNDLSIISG
Description: (§4) (A) GPR41 (FFAR3) aequorin assay. GPR41 was force coupled to the calcium signaling pathway by co-transfecting the cells with Gqmyri5. (B) GPR43 (FFAR2) aequorin assay. The short chain fatty acid propionate acts as a natural agonist ligand for GPR41 and GPR43. (C) GPR120 aequorin assay. The unsaturated fatty acids α-LNN and DHA act as natural agonist ligands for GPR120. (D) PPAR-gamma luciferase assay using the thiazolidinedione rosiglitazone as a positive control. […] (TIF) Click here for additional data file.

GPR41 (FFAR3) = target: T3, GPR41 (FFAR3) (Homo sapiens, UniProt O14843); experiment: GPR41 aequorin assay; assay type: cell-based; conditions: up to 10 µM
T3 construct: expressed in transfected cells
T3 sequence (O14843 whole entry, species assumed): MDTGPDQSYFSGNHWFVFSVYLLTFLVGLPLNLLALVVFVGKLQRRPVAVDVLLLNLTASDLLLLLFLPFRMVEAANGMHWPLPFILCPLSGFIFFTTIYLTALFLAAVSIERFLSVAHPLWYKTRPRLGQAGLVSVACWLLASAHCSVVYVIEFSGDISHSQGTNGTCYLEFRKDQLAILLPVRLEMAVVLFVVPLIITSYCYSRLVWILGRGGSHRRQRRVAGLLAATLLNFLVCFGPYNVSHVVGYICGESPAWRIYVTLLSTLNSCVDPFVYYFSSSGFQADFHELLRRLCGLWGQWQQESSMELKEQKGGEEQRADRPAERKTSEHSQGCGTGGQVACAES
Description: as §4

GPR40 [3] = target: T1, GPR40; experiment: Aequorin Ca2+ flux assay in CHO cell line stably expressing GPR40; assay type: cell-based; conditions: CHO-GPR40 stable cell line
Procedure: Since GPR40 agonists with greater intrinsic activity may have improved anti-diabetic properties, we focused our efforts to discover potent synthetic full agonists.
as §1

HF/STZ mice [4] = experiment: OGTT in high-fat fed, streptozotocin-treated (HF/STZ) type 2 diabetic mice; assay type: in vivo, mouse; conditions: OGTT; for Glucose AUC improvement: 1 hour before glucose
Procedure: as §2, §3

GPR43 (FFAR2) = target: T4, GPR43 (FFAR2) (Homo sapiens, UniProt O15552); experiment: GPR43 aequorin assay; assay type: cell-based; conditions: up to 10 µM
T4 construct: expressed in transfected cells
T4 sequence (O15552 whole entry, species assumed): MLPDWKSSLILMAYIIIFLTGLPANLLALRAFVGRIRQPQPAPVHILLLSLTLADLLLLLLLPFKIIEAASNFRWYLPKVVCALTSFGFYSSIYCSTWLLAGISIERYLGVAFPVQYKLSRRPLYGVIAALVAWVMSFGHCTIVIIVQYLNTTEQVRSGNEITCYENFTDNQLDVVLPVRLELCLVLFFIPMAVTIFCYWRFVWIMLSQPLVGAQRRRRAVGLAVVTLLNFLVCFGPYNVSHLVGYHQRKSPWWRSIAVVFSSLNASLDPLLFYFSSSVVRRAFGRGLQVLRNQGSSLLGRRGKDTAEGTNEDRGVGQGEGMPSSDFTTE
Description: as §4

[5] = Unbound plasma drug concentration in HF/STZ mice; assay type: in vivo; conditions: C57BL/6j, mouse, 100 mg/kg oral, 1-hour post drug administration, by MS, read-out: free drug level in plasma
mouse GPR40 = mouse GPR40 (Mus musculus, UniProt Q76JU9); experiment: Mouse GPR40 inositol phosphate accumulation assay; assay type: cell-based
Sequence of mouse GPR40 (Q76JU9 whole entry): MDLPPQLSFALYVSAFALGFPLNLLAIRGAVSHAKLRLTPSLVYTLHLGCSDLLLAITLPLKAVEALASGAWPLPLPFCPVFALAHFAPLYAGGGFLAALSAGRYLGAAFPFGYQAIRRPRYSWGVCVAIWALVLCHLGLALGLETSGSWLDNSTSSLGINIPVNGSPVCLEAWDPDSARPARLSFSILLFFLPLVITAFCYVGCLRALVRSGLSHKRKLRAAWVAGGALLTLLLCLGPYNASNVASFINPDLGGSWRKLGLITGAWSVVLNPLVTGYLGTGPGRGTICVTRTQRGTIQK
Procedure: as §1

T1 sequence (O14842 whole entry): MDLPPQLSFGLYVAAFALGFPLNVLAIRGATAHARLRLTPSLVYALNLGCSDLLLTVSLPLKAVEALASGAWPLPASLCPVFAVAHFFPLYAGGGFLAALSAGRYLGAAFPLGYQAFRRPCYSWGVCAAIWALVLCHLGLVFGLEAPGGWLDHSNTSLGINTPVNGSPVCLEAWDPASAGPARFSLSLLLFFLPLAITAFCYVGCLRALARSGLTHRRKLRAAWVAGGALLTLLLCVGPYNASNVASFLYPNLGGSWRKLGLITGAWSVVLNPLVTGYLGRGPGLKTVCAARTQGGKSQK

COc1ccc(F)c(-c2ccc(COc3cccc([C@@H](CC(=O)O)C4CC4)c3)cc2C2=CCCC2(C)C)c1 [AM-1638]
displacement of 3H-AM-1638 (GPR40 [1]): displaced ^3H-AM-1638
activation of PPAR alpha (PPAR alpha): did not activate
GIP levels vs vehicle (NONcNZO10/LtJ mice; 60 mg/kg, 15 minutes after glucose challenge): did not reach statistical significance
insulin and GLP-1 levels 15 minutes after glucose challenge (NONcNZO10/LtJ mice; 60 mg/kg, vs vehicle and baseline): significantly increased
Glucose AUC change as printed in figure 5B (NONcNZO10/LtJ mice; OGTT, 60mg/kg): -26%
Glucose AUC reduction compared to vehicle (NONcNZO10/LtJ mice; OGTT, single 60 mg/kg oral dose): 26%
glucose excursions during OGTT (NONcNZO10/LtJ mice; single 60 mg/kg oral dose): almost complete suppression
GIP secretion (HF/STZ mice [2]): stimulated secretion of GIP
blood glucose levels (HF/STZ mice [2]; no glucose challenge): stabilized blood glucose levels
plasma GLP-1 and insulin levels (HF/STZ mice [2]; no glucose challenge, compared with AMG 837): markedly greater increase
inositol phosphate accumulation, fold increase compared to AMG 837 (GLUTag cells): 3–4 fold
EC50 (GPR120): ~5000 nM
activation of GPR41 (FFAR3) (GPR41 (FFAR3)): did not activate
EC50 (GPR40 [3]): 160 ± 10 nM
Emax (GPR40 [3]; compared to natural free fatty acid ligands, read-out: Emax (efficacy)): 100%
Glucose AUC improvement (HF/STZ mice [4]; 10 mg/kg oral): 15%
Glucose AUC improvement (HF/STZ mice [4]; 30 mg/kg oral): 23%
Glucose AUC improvement (HF/STZ mice [4]; 60 mg/kg oral): 35%
Glucose AUC improvement (HF/STZ mice [4]; 100 mg/kg oral): 48%
insulin secretion, fold greater than AMG 837 (HF/STZ mice [4]; higher doses): 1.5–2.2 fold
activation of GPR43 (FFAR2) (GPR43 (FFAR2)): did not activate
concentration at 1 h [5]: 363 ± 48 nM
EC50 (mouse GPR40): 12.9 ± 1.4 nM
